Where two headings read alike, the source gives them in different places.
What was measured:
30N82I88D [1] = test system: 30N82I88D; parameters: species or system HIV-1; details: MT-4, 30N82I88D; read-out: Cell-based assay (MT-4) EC50/nM 30N82I88D
WT HIV-1 = experiment: microbe, parasite or virus in culture; assay type: cell-based
[2] = test system: mutant HIV-1 with I84V/L90M mutations in the protease gene; assay type: cell-based; details: MT-4, 84V90M; read-out: Cell-based assay (MT-4) EC50/nM 84V90M
48V54V82A [3] = test system: 48V54V82A; parameters: species or system HIV-1; details: MT-4, 48V54V82A; read-out: Cell-based assay (MT-4) EC50/nM 48V54V82A
84V90M [4] = molecular target: T1, 84V90M (Human immunodeficiency virus type 1 group M subtype B, UniProt P04585, I572V/L578M); experiment: biochemical; parameters: species or system HIV-1
30N82I88D [5] = experiment: microbe, parasite or virus in culture; assay type: cell-based, HIV-1
WT = experiment: microbe, parasite or virus in culture; assay type: cell-based, HIV-1
84V90M [6] = molecular target: T1, 84V90M; experiment: cell-based; parameters: species or system HIV-1
46I50V [7] = experiment: microbe, parasite or virus in culture; assay type: cell-based, HIV-1
[8] = molecular target: recombinant HIV-1 protease (Human immunodeficiency virus type 1 group M subtype B, UniProt P04585); experiment: biochemical; assay type: biochemical; details: for Ki: read-out: Enzymatic assay Ki
48V54V82A [9] = experiment: microbe, parasite or virus in culture; assay type: cell-based, HIV-1
84V90M [10] = molecular target: T1, 84V90M; experiment: Enzymatic assay, IC50 against 84V90M mutant protease; assay type: biochemical, HIV-1
46I50V [11] = test system: 46I50V; parameters: species or system HIV-1; details: MT-4, 46I50V; read-out: Cell-based assay (MT-4) EC50/nM 46I50V
[12] = test system: recombinant HIV-1 strains with resistance mutations in the protease gene; experiment: Cross-resistance profile assay, whole panel of mutant viruses; assay type: cell-based
[13] = test system: PBMC in intact human whole blood
[14] = beagle, dog, in vivo, po
[15] = MT-4, WT, read-out: Cell-based assay (MT-4) EC50/nM WT
[16] = Human immunodeficiency virus 1, read-out: Cell-based assay (MT-4) EC50 30N82I88D
[17] = Human immunodeficiency virus 1, read-out: Cell-based assay (MT-4) EC50 WT
[18] = MT-4, 46I50V, read-out: Cell-based assay (MT-4) EC50 46I50V
[19] = MT-4, 48V54V82A, read-out: Cell-based assay (MT-4) EC50 48V54V82A
[20] = MT-4, 30N82I88D, read-out: Cell-based assay (MT-4) EC50 30N82I88D
[21] = read-out: Cell-based assay (MT-4) EC50 WT
[22] = MT-4, 84V90M, read-out: Cell-based assay (MT-4) EC50 84V90M
[23] = read-out: Enzymatic assay WT IC50/nM
[24] = Human immunodeficiency virus 1, read-out: EC50 [nM] WT HIV-1
[25] = Human immunodeficiency virus 1, read-out: Cell-based assay (MT-4) EC50 46I50V
[26] = Human immunodeficiency virus 1, read-out: Cell-based assay (MT-4) EC50 48V54V82A

Q: Which results are given for `O=C1N(Cc2ccccc2)[C@H](Cc2ccccc2)[C@H](O)[C@@H](O)[C@@H](Cc2ccc(O)cc2)N1Cc1ccccc1` [R=H, R1=Ph, R2=OH]?
A: EC50 (30N82I88D [1]): 2950 nM; EC50 (WT HIV-1; [15]): 1260 nM; EC50 [2]: > 6000 nM; EC50 (48V54V82A [3]): > 6000 nM

Q: What does the source list for `Nc1cccc(CN2C(=O)N(Cc3cccc(C(=O)O)c3)C(Cc3ccccc3)C(O)C(O)C2Cc2ccccc2)c1` (stereo not drawn)?
A: IC50 (84V90M [4]): 299 nM; EC50 (30N82I88D [5]; [16]): 3360 nM; EC50 (WT; [17]): 2340 nM; EC50 (84V90M [6]): > 6000 nM

Q: For `CCOC(=O)C(C)OP(=O)(CCCNC(=O)c1cccc(CN2C(=O)N(Cc3ccc4[nH]nc(N)c4c3)[C@H](Cc3ccccc3)[C@H](O)[C@@H](O)[C@H]2Cc2ccccc2)c1)Oc1ccccc1` (stereo partly drawn), which EC50 (46I50V [7]; [18]) is on record?
A: 209 nM

Q: And the Ki [8]?
A: 0.112 nM

Q: And the IC50 ([8]; read-out: Enzymatic assay WT IC50)?
A: 1.4 nM

Q: What about the IC50 (84V90M [4]; 84V90M enzyme, read-out: Enzymatic assay 84V90M IC50) of the same compound?
A: 6.4 nM

Q: And the EC50 (48V54V82A [9]; [19])?
A: 208 nM

Q: What about the EC50 (30N82I88D [5]; [20]) of the same compound?
A: 678 nM

Q: What about the EC50 (WT; [21]) of the same compound?
A: 603 nM

Q: And the EC50 (84V90M [6]; [22])?
A: 1280 nM

Q: Which EC50 (30N82I88D [1]) does the source give for `CCOC(=O)C(C)OP(=O)(COc1ccc(C[C@@H]2[C@H](O)[C@@H](O)[C@@H](Cc3ccccc3)N(Cc3ccccc3)C(=O)N2Cc2ccccc2)cc1)Oc1ccccc1` (stereo partly drawn) [R=H, R1=Ph, R2=Mono-lac-Et] here?
A: 2790 nM

Q: And the Ki [8]?
A: 0.12 nM

Q: And the IC50 [8, 23]?
A: 6.6 nM

Q: And the IC50 (84V90M [10])?
A: 56 nM

Q: And the EC50 (WT HIV-1; [15])?
A: 1730 nM

Q: And the EC50 [2]?
A: > 6000 nM

Q: And the EC50 (48V54V82A [3])?
A: > 6000 nM

Q: Which EC50 (30N82I88D [1]) does the source give for `O=C1N(Cc2ccccc2)[C@H](Cc2ccccc2)[C@H](O)[C@@H](O)[C@@H](Cc2ccccc2)N1Cc1ccc2[nH]nc(O)c2c1` here?
A: 869 nM

Q: What about the Ki [8] of the same compound?
A: 0.42 nM

Q: And the IC50 [8, 23]?
A: 6.6 nM

Q: What about the IC50 (84V90M [10]) of the same compound?
A: 85 nM

Q: And the EC50 (WT HIV-1; [15])?
A: 1230 nM

Q: And the EC50 [2]?
A: > 600 nM

Q: What about the EC50 (48V54V82A [3]) of the same compound?
A: 774 nM

Q: And the EC50 (46I50V [11])?
A: 937 nM

Q: Which results are given for `COc1ccc(S(=O)(=O)N(CC(C)C)C[C@@H](O)[C@H](Cc2ccccc2)NC(=O)O[C@H]2CO[C@H]3OCC[C@H]32)cc1` [94-003, reference compound]?
A: EC50 (WT HIV-1; [24]): 0.5 nM; Total No. of Resistant Viruses ([12]; {}): 3

Q: With `CCOC(=O)C(C)NP(=O)(COc1ccc(CC(NC(=O)OC2COC3OCCC23)C(O)CN(CC(C)C)S(=O)(=O)c2ccc(OC)cc2)cc1)Oc1ccccc1` (stereo not drawn) [GS-16571] as the compound, how does the “Intracellular Acid Metabolite Concentration” value [13] read?
A: 319 ± 112 µM

Q: What about the “Intracellular Prodrug Concentration” value [13] of the same compound?
A: 137 ± 62 µM

Q: And the “Intracellular Prodrug and Metabolites Concentration, uM: Acid Metabolite” value [13]?
A: 319 ± 112 µM

Q: What about the “Intracellular Prodrug and Metabolites Concentration: Prodrug” value [13] of the same compound?
A: 137 ± 62 µM

Q: And the “Intracellular Prodrug and Metabolites Concentration: Total” value [13]?
A: 432 ± 208 µM

Q: And the “Total No. of Resistant Viruses” value ([12]; of 11 mutant viruses, resistance = 5-fold and higher change in EC50 relative to wild-type)?
A: 0

Q: Which results are given for `CCOP(=O)(CCCNC(=O)c1cccc(CN2C(=O)N(Cc3ccc4[nH]nc(N)c4c3)[C@H](Cc3ccccc3)[C@H](O)[C@@H](O)[C@H]2Cc2ccccc2)c1)OCC`?
A: EC50 (46I50V [7]; [18]): 319 nM; EC50 (48V54V82A [9]; [19]): 240 nM; EC50 (30N82I88D [5]; [20]): 666 nM; EC50 (WT; [21]): 188 nM; EC50 (84V90M [6]; [22]): 476 nM

Q: With `Cc1c(O)cccc1C(=O)N[C@@H](CSc1ccccc1)[C@H](O)CN1C[C@H]2CCCC[C@H]2C[C@H]1C(=O)NC(C)(C)C` [Nelfinavir] as the compound, how does the EC50 (WT HIV-1; [24]) read?
A: 14 nM

Q: And the “Total No. of Resistant Viruses” value ([12]; {})?
A: 9

Q: And the “AUC(2-24 hr) in PBMCs” value [14]?
A: 33,000 nM · hr

Q: And the “t1/2” value [14]?
A: 3.0 h

Q: And the “t1/2 (hr) in PBMCs” value [14]?
A: 3.0 h

Q: Which EC50 (46I50V [7]; [25]) does the source give for `Nc1n[nH]c2ccc(CN3C(=O)N(Cc4cccc(O)c4)C(Cc4ccccc4)C(O)C(O)C3Cc3ccccc3)cc12` (stereo not drawn) [m-OH] here?
A: 104 nM

Q: What about the EC50 (48V54V82A [9]; [26]) of the same compound?
A: 84 nM

Q: What about the EC50 (30N82I88D [5]; [16]) of the same compound?
A: 249 nM

Q: What about the EC50 (WT; [17]) of the same compound?
A: 151 nM

Q: And the EC50 (84V90M [6])?
A: 475 nM

Q: For `O=C1N(Cc2ccccc2)[C@H](Cc2ccccc2)[C@H](O)[C@@H](O)[C@@H](Cc2ccccc2)N1Cc1ccc2[nH]ncc2c1` [drawing 870], which EC50 (30N82I88D [1]) is on record?
A: 281 nM

Q: And the EC50 (WT HIV-1; [15])?
A: 193 nM

Q: What about the EC50 (48V54V82A [3]) of the same compound?
A: 705 nM

Q: What about the EC50 (46I50V [11]) of the same compound?
A: 772 nM

Q: Which results are given for `CC(C)(C)NC(=O)[C@@H]1C[C@@H]2CCCC[C@@H]2CN1C[C@@H](O)[C@H](Cc1ccccc1)NC(=O)[C@H](CC(N)=O)NC(=O)c1ccc2ccccc2n1` [Saquinavir, reference compound]?
A: EC50 (WT HIV-1; [24]): 4 nM; Total No. of Resistant Viruses ([12]; {}): 4

Q: Which EC50 (46I50V [7]; [25]) does the source give for `Nc1n[nH]c2ccc(CN3C(=O)N(Cc4cccc(OCc5ccccc5)c4)C(Cc4ccccc4)C(O)C(O)C3Cc3ccccc3)cc12` (stereo not drawn) [m-OBn] here?
A: 601 nM

Q: What about the IC50 (84V90M [4]) of the same compound?
A: 27 nM

Q: And the EC50 (48V54V82A [9]; [26])?
A: 709 nM

Q: And the EC50 (30N82I88D [5]; [16])?
A: 82 nM

Q: What about the EC50 (WT; [17]) of the same compound?
A: 218 nM

Q: What about the EC50 (84V90M [6]) of the same compound?
A: 2420 nM
